Test results reported in patent publication US20240158446A1, “CYCLIC COMPOUND HAVING SELECTIVE INHIBITORY ACTION ON KRAS OVER HRAS AND NRAS” (CHUGAI SEIYAKU KABUSHIKI KAISHA, priority 2021, published 2024).
pKd: −log10 of the molar value. *1 amine or outer side, *2 acyl side, *3 side chain or, on linkers, in order; H or OH if unused. Where a SMILES comes first, the peptide text is derived from it. Bridges are numbered along the chain shown (N, C = ends). [ ]: non-standard residue; d: D form. The star is where a group is joined. hPhe(3-Cl-4-CF3) = N[C@@H](CCc1ccc(C(F)(F)F)c(Cl)c1)C(=O)O; NEtPhe(4-Me) = CCN[C@@H](Cc1ccc(C)cc1)C(=O)O; NMeAbu(4,4,4-F3) = CN[C@@H](CC(F)(F)F)C(=O)O; NMePhe(4-Me) = CN[C@@H](Cc1ccc(C)cc1)C(=O)O; X7 = CCN([C@H](C(=O)[*:2])C1CCCC1)[*:1]; NMeGly(cPent) = CN[C@H](C(=O)O)C1CCCC1; Hyp = O=C(O)[C@@H]1C[C@@H](O)CN1; NMeF = CN[C@@H](Cc1ccccc1)C(=O)O; NMeI = CC[C@H](C)[C@H](NC)C(=O)O; NMeD = CN[C@@H](CC(=O)O)C(=O)O; NMeL = CN[C@@H](CC(C)C)C(=O)O; NMeS = CN[C@@H](CO)C(=O)O; Morpholide = C1CN(*)CCO1; NMeA = CN[C@@H](C)C(=O)O; Ac5c = NC1(C(=O)O)CCCC1; NEtG = CCNCC(=O)O; Sar = CNCC(=O)O

Experiments:
[1] = target: GDP-bound KRAS wild-type protein (Homo sapiens, UniProt P01116); experiment: Binding to KRAS by surface plasmon resonance (SPR), Single Cycle Kinetics; settings: SPR Single Cycle Kinetics, GDP-bound KRAS wild-type protein, 1:1 binding model; read-out: KRAS KD
[2] = target: GDP-bound NRAS wild-type protein (Homo sapiens, UniProt P01111); experiment: Binding to NRAS by surface plasmon resonance (SPR), Single Cycle Kinetics; settings: SPR, GDP-bound NRAS wild-type protein vs GDP-bound KRAS wild-type protein
[3] = target: GDP-bound HRAS wild-type protein (Homo sapiens, UniProt P01112); experiment: Binding to HRAS by surface plasmon resonance (SPR), Single Cycle Kinetics; settings: SPR, GDP-bound HRAS wild-type protein vs GDP-bound KRAS wild-type protein
Sequence of GDP-bound HRAS wild-type protein (P01112 whole entry): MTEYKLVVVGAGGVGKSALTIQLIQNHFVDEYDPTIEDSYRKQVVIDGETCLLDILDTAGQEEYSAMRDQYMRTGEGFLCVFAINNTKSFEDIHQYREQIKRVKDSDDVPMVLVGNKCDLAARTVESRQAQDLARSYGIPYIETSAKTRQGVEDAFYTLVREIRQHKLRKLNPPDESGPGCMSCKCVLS

Sequence of GDP-bound NRAS wild-type protein (P01111 whole entry): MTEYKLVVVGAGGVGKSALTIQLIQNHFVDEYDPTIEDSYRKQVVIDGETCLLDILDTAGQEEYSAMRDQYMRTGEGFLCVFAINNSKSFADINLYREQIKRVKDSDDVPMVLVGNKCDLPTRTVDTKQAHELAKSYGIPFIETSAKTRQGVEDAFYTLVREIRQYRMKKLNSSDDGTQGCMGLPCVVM
Sequence of GDP-bound KRAS wild-type protein (P01116 whole entry): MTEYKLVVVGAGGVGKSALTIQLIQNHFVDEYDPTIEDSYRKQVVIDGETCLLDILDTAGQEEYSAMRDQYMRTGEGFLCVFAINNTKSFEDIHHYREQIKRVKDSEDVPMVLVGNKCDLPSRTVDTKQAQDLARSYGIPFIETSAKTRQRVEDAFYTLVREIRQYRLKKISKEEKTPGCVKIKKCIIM

Structure (SMILES)	pKd [1]	NRAS/KRAS (ratio of KD value for NRAS to KD value for KRAS) [2]	HRAS/KRAS (ratio of KD value for HRAS to KD value for KRAS) [3]
CC[C@H](C)[C@@H]1NC(=O)[C@H](CC(C)C)N(C)C(=O)C[C@@H](C(=O)N2CCOCC2)N(C)C(=O)[C@H](C2CCCC2)N(C)C(=O)C2(CCCC2)NC(=O)[C@@H]2CCCN2C(=O)[C@H](CCc2ccc(C(F)(F)F)c(Cl)c2)NC(=O)CN(C)C(=O)[C@H](C2CCCC2)N(CC)C(=O)CN(C)C(=O)CN(C)C1=O [PP0024] ([NMeL]I[Sar][Sar][X7][Sar][hPhe(3-Cl-4-CF3)]P[Ac5c][NMeGly(cPent)][NMeD]-Morpholide; lactam N-11)	8.23	B (a compound having 3 or more and less than 10 is denoted as B)	C (A compound having a KD ratio of 0.1 or more and less than 3 is denoted as C)
CC[C@H](C)[C@@H]1NC(=O)[C@H](CC(C)C)N(C)C(=O)C[C@@H](C(=O)N2CCOCC2)N(C)C(=O)[C@H](C2CCCC2)N(C)C(=O)C2(CCCC2)NC(=O)[C@@H]2CCCN2C(=O)[C@H](CCc2ccc(C(F)(F)F)c(Cl)c2)NC(=O)CN(CC)C(=O)[C@H](Cc2ccc(C)cc2)N(C)C(=O)CN(C)C(=O)CN(C)C1=O [PP0025] ([NMeL]I[Sar][Sar][NMePhe(4-Me)][NEtG][hPhe(3-Cl-4-CF3)]P[Ac5c][NMeGly(cPent)][NMeD]-Morpholide; lactam N-11)	8.62	C (A compound having a KD ratio of 0.1 or more and less than 3 is denoted as C)	C (A compound having a KD ratio of 0.1 or more and less than 3 is denoted as C)
CC[C@H](C)[C@@H]1NC(=O)[C@H](CC(C)C)N(C)C(=O)C[C@@H](C(=O)N2CCOCC2)N(C)C(=O)[C@H](C2CCCC2)N(C)C(=O)C2(CCCC2)NC(=O)[C@@H]2CCCN2C(=O)[C@H](CCc2ccc(C(F)(F)F)c(Cl)c2)NC(=O)CN(C)C(=O)[C@H](Cc2ccc(C)cc2)N(CC)C(=O)CN(CC)C(=O)CN(C)C1=O [PP0027] ([NMeL]I[Sar][NEtG][NEtPhe(4-Me)][Sar][hPhe(3-Cl-4-CF3)]P[Ac5c][NMeGly(cPent)][NMeD]-Morpholide; lactam N-11)	9.10	C (A compound having a KD ratio of 0.1 or more and less than 3 is denoted as C)	C (A compound having a KD ratio of 0.1 or more and less than 3 is denoted as C)
CC[C@H](C)[C@@H]1NC(=O)[C@H](CC(C)C)N(C)C(=O)C[C@@H](C(=O)N2CCOCC2)N(C)C(=O)[C@H](C2CCCC2)N(C)C(=O)C2(CCCC2)NC(=O)[C@@H]2CCCN2C(=O)[C@H](CCc2ccc(C(F)(F)F)c(Cl)c2)NC(=O)CN(CC)C(=O)[C@H](Cc2ccc(C)cc2)N(CC)C(=O)CN(C)C(=O)CN(C)C1=O [PP0028] ([NMeL]I[Sar][Sar][NEtPhe(4-Me)][NEtG][hPhe(3-Cl-4-CF3)]P[Ac5c][NMeGly(cPent)][NMeD]-Morpholide; lactam N-11)	8.62	C (A compound having a KD ratio of 0.1 or more and less than 3 is denoted as C)	C (A compound having a KD ratio of 0.1 or more and less than 3 is denoted as C)
CC[C@H](C)[C@@H]1NC(=O)[C@H](CC(C)C)N(C)C(=O)C[C@@H](C(=O)N2CCOCC2)N(C)C(=O)[C@H](C2CCCC2)N(C)C(=O)C2(CCCC2)NC(=O)[C@@H]2CCCN2C(=O)[C@H](CCc2ccc(C(F)(F)F)c(Cl)c2)NC(=O)CN(CC)C(=O)[C@H](Cc2ccc(C)cc2)N(C)C(=O)CN(CC)C(=O)CN(C)C1=O [PP0029] ([NMeL]I[Sar][NEtG][NMePhe(4-Me)][NEtG][hPhe(3-Cl-4-CF3)]P[Ac5c][NMeGly(cPent)][NMeD]-Morpholide; lactam N-11)	8.15	C (A compound having a KD ratio of 0.1 or more and less than 3 is denoted as C)	C (A compound having a KD ratio of 0.1 or more and less than 3 is denoted as C)
CC[C@H](C)[C@@H]1NC(=O)[C@H](CC(C)C)N(C)C(=O)C[C@@H](C(=O)N2CCOCC2)N(C)C(=O)[C@H](C2CCCC2)N(C)C(=O)C2(CCCC2)NC(=O)[C@@H]2CCCN2C(=O)[C@H](CCc2ccc(C(F)(F)F)c(Cl)c2)NC(=O)CN(CC)C(=O)[C@H](Cc2ccc(C)cc2)N(CC)C(=O)CN(CC)C(=O)CN(C)C1=O [PP0030] ([NMeL]I[Sar][NEtG][NEtPhe(4-Me)][NEtG][hPhe(3-Cl-4-CF3)]P[Ac5c][NMeGly(cPent)][NMeD]-Morpholide; lactam N-11)	8.11	C (A compound having a KD ratio of 0.1 or more and less than 3 is denoted as C)	C (A compound having a KD ratio of 0.1 or more and less than 3 is denoted as C)
CC[C@H](C)[C@@H]1NC(=O)[C@H](C)N(C)C(=O)C[C@@H](C(=O)N2CCOCC2)N(C)C(=O)[C@H](C2CCCC2)N(C)C(=O)C2(CCCC2)NC(=O)[C@@H]2CCCN2C(=O)[C@H](CCc2ccc(C(F)(F)F)c(Cl)c2)NC(=O)CN(C)C(=O)[C@H](Cc2ccc(C)cc2)N(CC)C(=O)CN(C)C(=O)CN(C)C1=O [PP0031] ([NMeA]I[Sar][Sar][NEtPhe(4-Me)][Sar][hPhe(3-Cl-4-CF3)]P[Ac5c][NMeGly(cPent)][NMeD]-Morpholide; lactam N-11)	9.74	B (a compound having 3 or more and less than 10 is denoted as B)	C (A compound having a KD ratio of 0.1 or more and less than 3 is denoted as C)
CC[C@H](C)[C@@H]1NC(=O)[C@H](CC(F)(F)F)N(C)C(=O)C[C@@H](C(=O)N2CCOCC2)N(C)C(=O)[C@H](C2CCCC2)N(C)C(=O)C2(CCCC2)NC(=O)[C@@H]2CCCN2C(=O)[C@H](CCc2ccc(C(F)(F)F)c(Cl)c2)NC(=O)CN(C)C(=O)[C@H](Cc2ccc(C)cc2)N(CC)C(=O)CN(C)C(=O)CN(C)C1=O [PP0032] ([NMeAbu(4,4,4-F3)]I[Sar][Sar][NEtPhe(4-Me)][Sar][hPhe(3-Cl-4-CF3)]P[Ac5c][NMeGly(cPent)][NMeD]-Morpholide; lactam N-11)	9.43	C (A compound having a KD ratio of 0.1 or more and less than 3 is denoted as C)	C (A compound having a KD ratio of 0.1 or more and less than 3 is denoted as C)
CC[C@H](C)[C@@H]1NC(=O)[C@H](CC(C)C)N(C)C(=O)C[C@@H](C(=O)N2CCOCC2)N(C)C(=O)[C@H](C2CCCC2)N(C)C(=O)C2(CCCC2)NC(=O)[C@@H]2CCCN2C(=O)[C@H](CCc2ccc(C(F)(F)F)c(Cl)c2)NC(=O)CN(C)C(=O)[C@H](Cc2ccc(C)cc2)N(C)C(=O)[C@H](CO)N(C)C(=O)CN(C)C1=O [PP0037] ([NMeL]I[Sar][NMeS][NMePhe(4-Me)][Sar][hPhe(3-Cl-4-CF3)]P[Ac5c][NMeGly(cPent)][NMeD]-Morpholide; lactam N-11)	8.12	C (A compound having a KD ratio of 0.1 or more and less than 3 is denoted as C)	C (A compound having a KD ratio of 0.1 or more and less than 3 is denoted as C)
CC[C@H](C)[C@@H]1NC(=O)[C@H](CC(C)C)N(C)C(=O)C[C@@H](C(=O)N2CCOCC2)N(C)C(=O)[C@H](C2CCCC2)N(C)C(=O)C2(CCCC2)NC(=O)[C@@H]2CCCN2C(=O)[C@H](CCc2ccc(C(F)(F)F)c(Cl)c2)NC(=O)CN(C)C(=O)[C@H](Cc2ccccc2)N(C)C(=O)CN(C)C(=O)CN(C)C1=O [PP0039] ([NMeL]I[Sar][Sar][NMeF][Sar][hPhe(3-Cl-4-CF3)]P[Ac5c][NMeGly(cPent)][NMeD]-Morpholide; lactam N-11)	9.77	C (A compound having a KD ratio of 0.1 or more and less than 3 is denoted as C)	C (A compound having a KD ratio of 0.1 or more and less than 3 is denoted as C)
CCO[C@@H]1C[C@H]2C(=O)NC3(CCCC3)C(=O)N(C)[C@@H](C3CCCC3)C(=O)N(C)[C@H](C(=O)N3CCOCC3)CC(=O)N(C)[C@@H](CC(C)C)C(=O)N[C@@H]([C@@H](C)CC)C(=O)N(C)CC(=O)N(C)CC(=O)N(CC)[C@@H](Cc3ccc(C)cc3)C(=O)N(C)CC(=O)N[C@@H](CCc3ccc(C(F)(F)F)c(Cl)c3)C(=O)N2C1 [PP0042] ([NMeL]I[Sar][Sar][NEtPhe(4-Me)][Sar][hPhe(3-Cl-4-CF3)][Hyp](Et)[Ac5c][NMeGly(cPent)][NMeD]-Morpholide; lactam N-11)	9.92	C (A compound having a KD ratio of 0.1 or more and less than 3 is denoted as C)	C (A compound having a KD ratio of 0.1 or more and less than 3 is denoted as C)
CC[C@H](C)[C@@H]1NC(=O)[C@H](CC(C)C)N(C)C(=O)C[C@@H](C(=O)N2CCOCC2)N(C)C(=O)[C@H]([C@@H](C)CC)N(C)C(=O)C2(CCCC2)NC(=O)[C@@H]2CCCN2C(=O)[C@H](CCc2ccc(C(F)(F)F)c(Cl)c2)NC(=O)CN(C)C(=O)[C@H](Cc2ccc(C)cc2)N(CC)C(=O)CN(C)C(=O)CN(C)C1=O [PP0043] ([NMeL]I[Sar][Sar][NEtPhe(4-Me)][Sar][hPhe(3-Cl-4-CF3)]P[Ac5c][NMeI][NMeD]-Morpholide; lactam N-11)	9.06	C (A compound having a KD ratio of 0.1 or more and less than 3 is denoted as C)	C (A compound having a KD ratio of 0.1 or more and less than 3 is denoted as C)
